Data published in patent publication US8999990B2, “Inhibitors of the renal outer medullary potassium channel” (Merck Sharp & Dohme Corp., priority 2011, dated 2015).

Target: T1, hROMK1 (Kir1.1) (Homo sapiens, UniProt P48048)
T1 construct: expressed in transfected cells
T1 sequence (P48048 1-391): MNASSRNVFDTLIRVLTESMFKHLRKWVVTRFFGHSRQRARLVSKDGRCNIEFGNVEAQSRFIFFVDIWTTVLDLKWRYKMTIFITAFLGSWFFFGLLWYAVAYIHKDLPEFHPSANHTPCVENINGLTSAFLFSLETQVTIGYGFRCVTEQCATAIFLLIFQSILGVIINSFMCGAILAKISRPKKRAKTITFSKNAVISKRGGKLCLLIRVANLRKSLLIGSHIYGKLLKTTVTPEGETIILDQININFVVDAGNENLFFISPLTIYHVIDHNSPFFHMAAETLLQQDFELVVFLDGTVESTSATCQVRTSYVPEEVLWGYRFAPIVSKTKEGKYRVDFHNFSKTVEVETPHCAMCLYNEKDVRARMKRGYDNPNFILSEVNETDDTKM
Test: 86Rb+ Efflux Assay
Type: cell-based
Settings: CHO-DHFR- cells stably expressing hROMK1; 35 min incubation
Method: Several assays may be used to measure functional inhibition of the ROMK channel by compounds of the instant invention. One assay that was used to test the activity of compounds in the Examples is the functional ^86Rb^+ efflux assay described below, that measures the ability of ROMK to permeate ^86Rb^+, in the absence or presence of test compound. Under control conditions, cells loaded with ^86Rb^+ and incubated in Rb^+-free medium display a time-dependent efflux of the isotope, the rate of which depends on number of functional channels. When cells are incubated in the presence of a channel inhibitor, efflux of ^86Rb^+ is prevented in a concentration-dependent manner, and IC50 values of inhibition by compounds can be accurately determined. This assay has been established with cell lines expressing either human, rat or dog ROMK channels, and can operate in 96- or 384-well format. Importantly, the human, rat, and dog ^86Rb^+ efflux assays can be carried out in the presence of up to 100% serum allowing, therefore, an accurate estimation of the effect of protein binding on the inhibitory activity of compounds of interest. Another ROMK functional assay used to test the activity of compounds in the Examples (described below) makes use of the ability of thallium to permeate through open ROMK channels and increase the fluorescence of a dye previously loaded into the cells. Under control conditions, cells loaded with dye and exposed to thallium-containing medium display a time-dependent increase in fluorescence, the rate of which depends on number of functional channels. When cells are incubated in the presence of a channel inhibitor, the increase in fluorescence is attenuated in a concentration-dependent manner, and IC50 values of inhibition by compounds can be accurately determined. This assay has been established with cell lines expressing either human, or rat ROMK channels, and operates in 384-well format.
CHO-DHFR-cells stably expressing hROMK1 (Kir1.1) are grown at 37° C. in a 10% CO2 humidified incubator in Iscove's Modified Dulbecco's Medium (Gibco 12440) supplemented with HT Supplement, Penicillin/Streptomycin/Glutamine, G418 (500 μg/ml) and 10% FBS. Cells are seeded in Sterile and Tissue Culture Treated Packard CulturPlate White Opaque Microplates at a concentration of 5.0E5-7.0E5 cells/ml-PerkinElmer 6005680 (96-well); Corning 3707 (384 well) in complete media containing 1.5 μCi/ml Rubidium-86. Cells are incubated in 37° C.-10% CO2 incubator overnight. On the day of the experiment, the media is removed and cells are washed with low K assay buffer. ^86Rb^+ efflux is initiated after addition of assay buffer±test compound followed by 35 min incubation at room temperature. ROMK-sensitive component of efflux is defined in the presence of 10 mM BaCl2. Assay buffer is removed and transferred to a plate and cells are solubilized in the presence of SDS. Radioactivity associated with assay and cell plate is determined.
• 1. Remove cell media and wash cells with low K assay buffer (126.9 mM NaCl, 4.6 mM KCl, 2 mM CaCl2, 1 mM MgCl2, 10 mM Hepes/NaOH; pH 7.4) • 200 μl for 96-well plate; 70 μl for 384-well plate • 2. Add assay buffer (121.5 mM NaCl, 10 mM KCl, 2 mM CaCl2, 1 mM MgCl2, 10 mM Hepes/NaOH; pH 7.4)±test compound to cells • 100 μl for 96-well plate; 50 μl for 384-well plate • 3. Incubate at ambient temperature (22-24° C.) for 35 min • 4. Remove assay buffer add it to a 96- or 384-well plate containing Microscint-20 • 96-well Plate: 100 μl buffer, 170 μl MicroScint 20 (for TopCount) • 384-well plate: 20 μl buffer, 50 μl Optiphiase (for MicroLux) • 5. Completely remove remaining assay buffer from cell plate • 6. Solubilize cells with 1% SDS; than add MicroScint or Optiphase • 96-well Plate: 30 μl SDS, 170 μl MicroScint 20 (for TopCount) • 384-well plate: 20 μl SDS, 50 μl Optiphiase (for MicroLux) • 7. Seal both cell and supernatant plates and count Data Calculation— […]

SMILES	IC50 [nM]
N#Cc1c(F)ccc2c1CCC2CN1CCN(CCc2ccc3c(c2)COC3=O)CC1=O (stereo not shown) [Example 34, 5-Fluoro-1-({2-oxo-4-[2-(1-oxo-1,3-dihydro-2-benzofuran-5-yl)ethyl]piperazin-1-yl}methyl)-2,3-dihydro-1H-indene-4-carbonitrile]	360
N#Cc1ccc2c(c1)CCC(N1CCN(CCc3ccc4nonc4c3)CC1=O)C2 (racemic) [Example 13, 6-{4-[2-(2,1,3-Benzoxadiazol-5-yl)ethyl]-2-oxopiperazin-1-yl}-5,6,7,8-tetrahydronaphthalene-2-carbonitrile]	310
COC(=O)c1cc(CCN2CCN(CCc3ccc([N+](=O)[O-])cc3)C(=O)C2)ccc1[N+](=O)[O-] [Example 8, Methyl 2-nitro-5-(2-{4-[2-(4-nitrophenyl)ethyl]-3-oxopiperazin-1-yl}ethyl)benzoate]	250
N#Cc1cccc2c1CCCC2CN1CCN(CCc2ccc3c(c2)COC3=O)CC1=O (racemic) [Example 33, 5-((2-oxo-4-(2-(1-oxo-1,3-dihydroisobenzofuran-5-yl)ethyl)piperazin-1-yl)methyl)-5,6,7,8-tetrahydronaphthalene-1-carbonitrile]	150
COC(=O)c1cc([N+](=O)[O-])ccc1CCN1CCN(CCc2ccc([N+](=O)[O-])cc2)C(=O)C1 [Example 7, Methyl 5-nitro-2-(2-{4-[2-(4-nitrophenyl)ethyl]-3-oxopiperazin-1-yl}ethyl)benzoate]	390
O=C1OCc2cc(CCN3CCN(CCc4ccc5c(c4)COC5=O)C(=O)C3)ccc21 [Example 29, 1,4-Bis[2-(1-oxo-1,3-dihydro-2-benzofuran-5-yl)ethyl]piperazin-2-one]	420
N#Cc1ccc2c(c1)CCC(N1CCN(CCc3ccc4nonc4c3)C(=O)C1)C2 (racemic) [Example 14, 6-{4-[2-(2,1,3-Benzoxadiazol-5-yl)ethyl]-3-oxopiperazin-1-yl}-5,6,7,8-tetrahydronaphthalene-2-carbonitrile]	820
N#Cc1ccc(CCN2CCN(C3CCc4cc(C#N)ccc4C3)C(=O)C2)cc1 (racemic) [Example 25, 6-{4-[2-(4-Cyanophenyl)ethyl]-2-oxopiperazin-1-yl}-5,6,7,8-tetrahydronaphthalene-2-carbonitrile]	240
N#Cc1ccc(CCN2CCN(CCc3ccc4c(c3)COC4=O)CC2=O)cc1Br [Example 35]	170
N#Cc1ccc2c(c1)CCC(N1CCN(CCc3ccc4c(c3Cl)COC4=O)CC1=O)C2 (racemic) [Example 31, 6-{4-[2-(4-Chloro-1-oxo-1,3-dihydro-2-benzofuran-5-yl)ethyl]-2-oxopiperazin-1-yl}-5,6,7,8-tetrahydronaphthalene-2-carbonitrile]	410
O=C1CN(CCc2ccc([N+](=O)[O-])cc2)CCN1CCc1ccc2nonc2c1 [Example 24, 1-[2-(2,1,3-Benzoxadiazol-5-yl)ethyl]-4-[2-(4-nitrophenyl)ethyl]piperazin-2-one]	550
N#Cc1cc(CCN2CCN(CC(F)c3ccc4c(c3)COC4=O)CC2=O)ccc1F (racemic) [Example 39, 2-Fluoro-5-(2-{4-[2-fluoro-2-(1-oxo-1,3-dihydro-2-benzofuran-5-yl)ethyl]-2-oxopiperazin-1-yl}ethyl)benzonitrile]	910
COc1ccc(CCN2CCN(CCc3ccc4c(c3)COC4=O)C(=O)C2)cc1C#N [Example 32, 2-Methoxy-5-(2-{3-oxo-4-[2-(1-oxo-1,3-dihydro-2-benzofuran-5-yl)ethyl]piperazin-1-yl}ethyl)benzonitrile]	460
N#Cc1ccc2c(c1)CCC(N1CCN(CCc3ccc4c(=O)occc4c3)CC1=O)C2 (racemic) [Example 43, 6-{2-Oxo-4-[2-(1-oxo-1H-isochromen-6-yl)ethyl]piperazin-1-yl}-5,6,7,8-tetrahydronaphthalene-2-carbonitrile]	210

Now those with a lower IC50, led by results:

IC50 [nM]	SMILES
140	COc1cc([N+](=O)[O-])ccc1CCN1CCN(CCc2ccc([N+](=O)[O-])cc2)C(=O)C1 [Example 11, 4-[2-(2-Methoxy-4-nitrophenyl)ethyl]-1-[2-(4-nitrophenyl)ethyl]piperazin-2-one]
130	N#Cc1ccc2c(c1)CC(N1CCN(CCc3ccc4c(c3)COC4=O)CC1=O)C2 (racemic) [Example 44, 2-{2-Oxo-4-[2-(1-oxo-1,3-dihydro-2-benzofuran-5-yl)ethyl]piperazin-1-yl}-2,3-dihydro-1H-indene-5-carbonitrile]
120	N#Cc1ccc2c(c1)CCC2CN1CCN(CCc2ccc3c(c2)COC3=O)CC1=O (racemic) [Example 40, 1-({2-Oxo-4-[2-(1-oxo-1,3-dihydro-2-benzofuran-5-yl)ethyl]piperazin-1-yl}methyl)-2,3-dihydro-1H-indene-5-carbonitrile]
110	N#Cc1ccc(CCN2CCN(CCc3ccc4c(c3)COC4=O)CC2=O)cc1Cl [Example 36, 2-Chloro-4-(2-{2-oxo-4-[2-(1-oxo-1,3-dihydro-2-benzofuran-5-yl)ethyl]piperazin-1-yl}ethyl)benzonitrile]
100	N#Cc1ccc2c(c1)CCC(N1CCN([C@H]3CCc4cc(C#N)ccc4C3)C(=O)C1)C2 (stereo partly drawn) [Example 16, (6S)-6,6′-(2-oxopiperazine-1,4-diyl)-di-(5,6,7,8-tetrahydronaphthalene-2-carbonitrile)]
80	COc1cc([N+](=O)[O-])ccc1CCN1CCN(C2CCc3cc(C#N)ccc3C2)C(=O)C1 (racemic) [Example 9, 6-{4-[2-(2-Methoxy-4-nitrophenyl)ethyl]-2-oxopiperazin-1-yl}-5,6,7,8-tetrahydronaphthalene-2-carbonitrile]
70	O=C1CN(CCc2ccc([N+](=O)[O-])cc2)CCN1CCc1ccc([N+](=O)[O-])cc1 [Example 1, 1,4-bis[2-(4-nitrophenyl)ethyl]piperazin-2-one]
51	N#Cc1ccc2c(c1)CCC(N1CCN(C3CCc4cc(C#N)ccc4C3)C(=O)C1)C2 (stereo not shown) [Example 15, 6,6′-(2-Oxopiperazine-1,4-diyl)di(5,6,7,8-tetrahydronaphthalene-2-carbonitrile)]
